Laboratory results reported in patent US7169789B2 (Kirin Beer Kabushiki Kaisha, priority 1999, dated 2007).

Columns and labels:
human KDR = target: T1, human KDR (Homo sapiens, UniProt P35968); assay: Inhibitory activity against KDR phosphorylation by ELISA; type: cell-based; details: NIH 3T3 cells transfected with human KDR, VEGF 100 ng/ml
T1 construct: expressed in transfected cells; host or cells: NIH 3T3 cells (Sawano A et al., Cell Growth & Differentiation 7, 213-221 (1996))
Protocol: Measurement of Inhibitory Activity Against KDR Phosphorylation by ELISA
NIH 3T3 cells (Sawano A et al., Cell Growth & Differentation, 7, 213–221 (1996), “Flt-1 but not KDR/Flk-1 tyrosine kinase is a receptor for placenta growth factor, which is related to vascular endothelial growth factor”) prepared by transfection of human KDR were cultured in a DMEM medium containing 10% fetal calf serum (purchased from GIBCO BRL) within a 5% carbon dioxide incubator until 50 to 70% confluent. The harvested cells were inoculated into wells, containing the same medium, in a collagen-type one-coat 96-well flat-bottom plate in an amount of 1.5×10^4 per well, followed by cultivation at 37° C. overnight. The medium was then replaced by a DMEM medium containing 0.1% fetal calf serum. A solution of the test compound in dimethyl sulfoxide was added to each well, and the cultivation was continued at 37° C. for additional one hr. A human recombinant vascular endothelial growth factor (hereinafter abbreviated to “VEGF”) was added to a final concentration of 100 ng/ml, and the stimulation of cells was carried out at 37° C. for 2 min. The medium was removed, the cells were washed with phosphate buffered saline (pH 7.4), and 50 μl of a solubilization buffer (20 mM HEPES (pH 7.4), 150 mM NaCl, 0.2% Triton X-100, 10% glycerol, 5 mM sodium orthovanadylate, 5 mM disodium ethylenediaminetetraacetate, and 2 mM Na4P2O7) was then added thereto. The mixture was shaken at 4° C. for 2 hr to prepare a cell extract.
Separately, phosphate buffered saline (50 μl, pH 7.4) containing […] of anti-phospho-tyrosine antibody (PY20; purchased from Transduction Laboratories) was added to a microplate for ELISA (Maxisorp; purchased from NUNC), followed by standing at 4° C. overnight to form a solid phase on the wells. After washing of the plate, 300 μl of a blocking solution was added, followed by standing at room temperature for 2 hr to perform blocking. After washing, the whole quantity of the cell extract was transferred to the wells, and the plate was then allowed to stand at 4° C. overnight. After washing, an anti-KDR antibody (purchased from Santa Cruz) was allowed to react at room temperature for one hr, and, after washing, a peroxidase-labeled anti-rabbit Ig antibody (purchased from Amersham) was allowed to react at room temperature for one hr. After washing, a chromophoric substrate for peroxidase (purchased from Sumitomo Bakelite Co., Ltd.) was added thereto to initiate a reaction. After a suitable level of color development, a reaction termination solution was added to stop the reaction, and the absorbance at 450 nm was measured with a microplate reader. The KDR phosphorylation activity for each well was determined by presuming the absorbance with the addition of VEGF and without the addition of the medicament to be 100% KDR phosphorylation activity and the absorbance without the medicament and VEGF to be 0% KDR phosphorylation activity. The concentration of the test compound was varied on several levels, the inhibition (%) of KDR phosphorylation was determined for each case, and the concentration of the test compound necessary for inhibiting 50% of KDR phosphorylation (IC50) was calculated.

Human glioma cells GL07 = assay: Antitumor effect on human glioma cells (GL07) transplanted into nude mice; type: in vivo; details: Mus musculus, Glioma cell, 216 h, GL07, oral, 20 mg/kg once a day for 9 days, read-out: TGIR, % (tumor growth inhibition rate)
Protocol: Antitumor Effect on Human Glioma Cells (GL07)
Human glioma cells GL07 (obtained from Central Laboratories for Experimental Animals) were transplanted into nude mice. When the tumor volume became about 100 mm^3, the mice were grouped. In this case, grouping was carried out so that each group consisted of four mice and the average tumor volume was even among the groups. The test compound was orally or intraperitoneally administered at a dose of 20 mg/kg to the test groups every day once a day for 9 days, while the medium was administered to the control group in the manner as in the test groups. The tumor growth inhibition rate (TGIR) was calculated as follows: The tumor growth inhibition rate (TGIR)=(1−Tx/Cx)×100 wherein Cx represents the volume of tumor at day x for the control group when the tumor volume at the day of the start of the administration was presumed to be 1; and Tx represents the volume of tumor for test compound administration groups.

T1 sequence (P35968 20-1356): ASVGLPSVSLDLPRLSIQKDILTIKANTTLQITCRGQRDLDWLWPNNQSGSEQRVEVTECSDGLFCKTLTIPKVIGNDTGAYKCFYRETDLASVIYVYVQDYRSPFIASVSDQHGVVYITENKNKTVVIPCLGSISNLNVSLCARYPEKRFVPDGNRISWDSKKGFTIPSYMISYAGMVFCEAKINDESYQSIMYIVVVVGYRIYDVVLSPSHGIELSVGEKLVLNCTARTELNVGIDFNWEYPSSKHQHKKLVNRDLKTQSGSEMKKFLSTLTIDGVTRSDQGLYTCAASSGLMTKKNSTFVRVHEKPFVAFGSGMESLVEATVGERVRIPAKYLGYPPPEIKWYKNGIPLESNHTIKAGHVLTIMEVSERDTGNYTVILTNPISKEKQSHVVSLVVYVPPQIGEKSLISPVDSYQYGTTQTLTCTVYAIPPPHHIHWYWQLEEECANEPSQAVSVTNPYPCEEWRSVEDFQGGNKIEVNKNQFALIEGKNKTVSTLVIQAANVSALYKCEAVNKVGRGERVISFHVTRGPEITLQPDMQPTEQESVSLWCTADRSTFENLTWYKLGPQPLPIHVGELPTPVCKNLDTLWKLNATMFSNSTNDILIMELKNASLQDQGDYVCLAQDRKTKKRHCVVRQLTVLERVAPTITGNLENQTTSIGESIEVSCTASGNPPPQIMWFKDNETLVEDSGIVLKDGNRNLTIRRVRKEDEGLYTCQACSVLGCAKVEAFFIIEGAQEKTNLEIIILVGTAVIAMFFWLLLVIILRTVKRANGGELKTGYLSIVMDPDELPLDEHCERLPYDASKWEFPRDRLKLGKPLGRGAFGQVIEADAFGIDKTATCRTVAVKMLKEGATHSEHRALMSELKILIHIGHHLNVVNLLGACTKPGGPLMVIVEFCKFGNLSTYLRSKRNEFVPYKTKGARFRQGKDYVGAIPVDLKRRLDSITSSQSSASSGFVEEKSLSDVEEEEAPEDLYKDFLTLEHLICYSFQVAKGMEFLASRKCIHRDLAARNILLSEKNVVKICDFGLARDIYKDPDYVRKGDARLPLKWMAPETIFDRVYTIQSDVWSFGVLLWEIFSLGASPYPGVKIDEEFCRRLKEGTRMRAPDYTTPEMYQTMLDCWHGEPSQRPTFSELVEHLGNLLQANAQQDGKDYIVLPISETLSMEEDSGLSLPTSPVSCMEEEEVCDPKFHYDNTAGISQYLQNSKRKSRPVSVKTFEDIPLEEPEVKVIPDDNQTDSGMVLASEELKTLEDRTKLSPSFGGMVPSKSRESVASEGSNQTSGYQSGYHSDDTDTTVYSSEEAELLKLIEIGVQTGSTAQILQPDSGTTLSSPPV

| IC50 (human KDR) | SMILES | inhibition in vivo at 20 mg/kg (Human glioma cells GL07) |
| --- | --- | --- |
| 160 nM | CCCNC(=O)Nc1ccc(Oc2ncnc3cc(OC)c(OCCN4CCN(C)CC4)cc23)cc1Cl [Example 136, N-[2-Chloro-4-({7-methoxy-6-[2-(4-methylpiperazino)ethoxy]-4-quinazolinyl}oxy)phenyl]-N′-propylurea] | 23% |
| 0.5 nM | CCNC(=O)Nc1ccc(Oc2ncnc3cc(OCCCN4CCCCC4)c(OC)cc23)cc1Cl [Example 185, N-(2-chloro-4-{[6-methoxy-7-(3-piperidinopropoxy)-4-quinazolinyl]oxy}phenyl)-N′-ethylurea] | 59% |
| > 1000 nM | COc1cc2ncnc(Oc3ccc(NC(=O)N(C)c4ccc(Cl)cc4)c(Cl)c3)c2cc1OC [Example 115, N′-{2-Chloro-4-[(6,7-dimethoxy-4-quinazolinyl)oxy]phenyl}-N-(4-chlorophenyl)-N-methylurea] | 74% |
| > 1000 nM | CCN(CC)C(=O)Nc1ccc(Oc2ncnc3cc(OCCn4ccnn4)c(OC)cc23)cc1Cl [Example 131, N′-[2-Chloro-4-({6-methoxy-7-[2-(1H-1,2,3-triazol-1-yl)ethoxy]-4-quinazolinyl}oxy)phenyl]-N,N-diethylurea] | 31% |
| 0.2 nM | CNC(=O)Nc1ccc(Oc2ncnc3cc(OCCCN4CCCCC4)c(OC)cc23)cc1Cl [Example 184, N-(2-chloro-4-{[6-methoxy-7-(3-piperidinopropoxy)-4-quinazolinyl]oxy}phenyl)-N′-methylurea] | 48% |
| 2.6 nM | CCCNC(=O)Nc1ccc(Oc2ccnc3cc(OCc4cccnc4)c(OC)cc23)cc1Cl [Example 142, N-(2-chloro-4-{[6-methoxy-7-(3-pyridylmethoxy)-4-quinolyl]oxy}phenyl)-N′-propylurea] | 48% |
| 0.8 nM | CCCNC(=O)Nc1ccc(Oc2ccnc3cc(OCCCN4CCN(C)CC4)c(OC)cc23)cc1Cl [Example 152, N-[2-chloro-4-(6-methoxy-7-{[3-(4-methylpiperazino)propoxy]-4-quinolyl}oxy)phenyl]-N′-propylurea] | 44% |
| 0.6 nM | COc1cc2c(Oc3ccc(NC(=O)Nc4ccc(F)cc4F)c(Cl)c3)ncnc2cc1OCCCN(C)CCO [Example 165, N-{2-chloro-4-[(7-{3-[(2-hydroxyethyl)-(methyl)amino]propoxy}-6-methoxy-4-quinazolinyl)oxy]-phenyl}-N′-(2,4-difluorophenyl)urea] | 44% |
| > 1000 nM | CCN(CC)C(=O)Nc1ccc(Oc2ncnc3cc(OC)c(OC)cc23)cc1Cl [Example 116, N′-{2-Chloro-4-[(6,7-dimethoxy-4-quinazolinyl)oxy]phenyl}-N,N-diethylurea] | 83% |
| 15 nM | CCCNC(=O)Nc1ccc(Oc2ccnc3cc(OCCN4CCN(C)CC4)c(OC)cc23)cc1Cl [Example 148, N-[2-chloro-4-(6-methoxy-7-{[2-(4-methylpiperazino)ethoxy]-4-quinolyl}oxy)phenyl]-N′-propylurea] | 54% |
| 2.6 nM | CCCNC(=O)Nc1ccc(Oc2ncnc3cc(OCCCCCn4ccnn4)c(OC)cc23)cc1Cl [Example 125, N-{2-chloro-4-[(6-methoxy-7-{[5-(1H-1,2,3-triazol-1-yl)pentyl]oxy}-4-quinazolinyl)oxy]phenyl}-N′-propylurea] | 30% |
| 0.5 nM | CCCNC(=O)Nc1ccc(Oc2ccnc3cc(OCCCN4CCOCC4)c(OC)cc23)cc1Cl [Example 151, N-(2-chloro-4-{[6-methoxy-7-(3-morpholinopropoxy)-4-quinolyl]oxy}phenyl)-N′-propylurea] | 44% |
| 5 nM | CCCNC(=O)Nc1ccc(Oc2ncnc3cc(OCCCSc4nnnn4C)c(OC)cc23)cc1Cl [Example 134, N-{2-Chloro-4-[(6-methoxy-7-{3-[(1-methyl-1H-1,2,3,4-tetrazol-5-yl)thio]propoxy}-4-quinazolinyl)-oxy]phenyl}-N′-propylurea] | 29% |
| 3.9 nM | CCCNC(=O)Nc1ccc(Oc2ncnc3cc(OCCN4CCOCC4)c(OC)cc23)cc1Cl [Example 120, N-(2-Chloro-4-{[6-methoxy-7-(2-morpholinoethoxy)-4-quinazolinyl]oxy}phenyl)-N′-propylurea] | 30% |
| 3.5 nM | CCCNC(=O)Nc1ccc(Oc2ccnc3cc(OCc4ccncc4)c(OC)cc23)cc1Cl [Example 143, N-(2-chloro-4-{[6-methoxy-7-(4-pyridylmethoxy)-4-quinolyl]oxy}phenyl)-N′-propylurea] | 53% |
| 3.7 nM | COc1cc2c(Oc3ccc(NC(=O)Nc4ccc(F)cc4F)c(Cl)c3)ccnc2cc1OCc1cccnc1 [Example 169, N-(2-chloro-4-{[6-methoxy-7-(3-pyridylmethoxy)-4-quinolyl]oxy}phenyl)-N′-(2,4-difluorophenyl)urea] | 55% |
| > 1000 nM | COc1cc2c(Oc3ccc(NC(=O)N(C)C)c(Cl)c3)ncnc2cc1OCCCN1CCN(C)CC1 [Example 182, N′-[2-Chloro-4-({6-methoxy-7-[3-(4-methylpiperazino)propoxy]-4-quinazolinyl}oxy)phenyl]-N,N-dimethylurea] | 31% |
| 12.5 nM | CCCNC(=O)Nc1ccc(Oc2ncnc3cc(OCCCO)c(OC)cc23)cc1Cl [Example 121, N-(2-Chloro-4-{(7-(3-hydroxypropoxy)-6-methoxy-4-quinazolinyl]oxy}phenyl)-N′-propylurea] | 22% |
| 2.3 nM | COc1cc2c(Oc3cc(C)c(NC(=O)Nc4ccc(F)cc4F)cc3C)ccnc2cc1OCCn1ccnn1 [Example 177, N-(2,4-Difluorophenyl)-N′-[4-({6-methoxy-7-[2-(1H-1,2,3-triazol-1-yl)ethoxy]-4-guinolyl}oxy)-2,5-dimethylphenyl]urea] | 35% |
| 5.8 nM | CCCNC(=O)Nc1ccc(Oc2ncnc3cc(OCCO)c(OC)cc23)cc1Cl [Example 122, N-(2-Chloro-4-{[7-(2-hydroxyethoxy)-6-methoxy-4-quinazolinyl]oxy}phenyl)-N′-propylurea] | 21% |
| 0.8 nM | CCCNC(=O)Nc1ccc(Oc2ccnc3cc(OCCCN(CCO)CCO)c(OC)cc23)cc1Cl [Example 156, N-{2-Chloro-4-[(7-{3-[di(2-hydroxyethyl)-amino]propoxy}-6-methoxy-4-guinolyl)oxy]phenyl}-N′-propylurea] | 24% |
| 2.1 nM | CCCNC(=O)Nc1ccc(Oc2ccnc3cc(OCCN(CCO)CCO)c(OC)cc23)cc1Cl [Example 155, N-{2-Chloro-4-[(7-{2-[di(2-hydroxyethyl)-amino]ethoxy}-6-methoxy-4-guinolyl)oxy]phenyl}-N-propylurea] | 29% |
| 8.9 nM | CCCNC(=O)Nc1ccc(Oc2ncnc3cc(OCc4ccncc4)c(OC)cc23)cc1Cl [Example 123, N-(2-Chloro-4-{[6-methoxy-7-(4-pyridylmethoxy)-4-quinazolinyl]oxy}phenyl)-N′-propylurea] | 31% |
